# Source: ChEMBL document CHEMBL1201862, “PubChem BioAssay data set” (2004)
#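 Values below derive from 48-hour exposures of cells grown in 96-well plates, with endpoints linearly interpolated between the two concentrations bracketing the appropriate inhibition level. GI50 marks 50% less growth.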 The source made the active and inactive calls. No stated cut-off is given here; in the data, active = GI50 up to about 1.1 µM and inactive = higher.
# Assays:
# Experiment in all cases: NCI tumour cell line growth inhibition, 48 h
# NCI-H460 = system: NCI-H460
# SR = system: SR
# K562 = system: K562
# M19-MEL = system: M19-MEL
# HCT-116 = system: HCT-116
# OVCAR-3 = system: OVCAR-3
# OVCAR-8 = system: OVCAR-8
# UACC-62 = system: UACC-62
# EKVX = system: EKVX
# SW-620 = system: SW-620
# SF-268 = system: SF-268
# XF498 = system: XF498
# LOX IMVI = system: LOX IMVI
# DMS-114 = system: DMS-114
# HCC 2998 = system: HCC 2998
# UACC-257 = system: UACC-257
# DLD-1 = system: DLD-1
# SNB-19 = system: SNB-19
# KM12 = system: KM12
# HOP-18 = system: HOP-18
# CCRF-CEM = system: CCRF-CEM
# RPMI-8226 = system: RPMI-8226
# CAKI-1 = system: CAKI-1
# SNB-78 = system: SNB-78
# A549 = system: A549
# HL-60 = system: HL-60
# SN12C = system: SN12C
# 786-0 = system: 786-0
# LXFL 529 = system: LXFL 529
# NCI-H226 = system: NCI-H226
# OVCAR-5 = system: OVCAR-5
# SNB-75 = system: SNB-75
# ACHN = system: ACHN
# U-251 = system: U-251
# RXF 393 = system: RXF 393
# SK-MEL-5 = system: SK-MEL-5
# HCT-15 = system: HCT-15
# TK-10 = system: TK-10
# COLO 205 = system: COLO 205
# NCI-H23 = system: NCI-H23
# Malme-3M = system: Malme-3M
# DMS-273 = system: DMS-273
# NCI-H522 = system: NCI-H522
# M14 = system: M14
# HOP-62 = system: HOP-62
# KM-20L2 = system: KM-20L2
# SK-MEL-28 = system: SK-MEL-28
# SF-295 = system: SF-295
# SK-OV-3 = system: SK-OV-3
# UO-31 = system: UO-31
# OVCAR-4 = system: OVCAR-4
# IGROV-1 = system: IGROV-1
# HT-29 = system: HT-29
# MOLT-4 = system: MOLT-4
# SK-MEL-2 = system: SK-MEL-2
smiles,measurement,setting,value
O=C1C(Cl)C(c2ccccc2)N1n1cnc2ccccc2c1=O (stereo not given),GI50,NCI-H460,> 100 µM (inactive)
same,GI50,SR,36.1 µM (inactive)
same,GI50,K562,> 100 µM (inactive)
same,GI50,M19-MEL,> 100 µM (inactive)
same,GI50,HCT-116,> 100 µM (inactive)
same,GI50,OVCAR-3,> 100 µM (inactive)
same,GI50,OVCAR-8,> 100 µM (inactive)
same,GI50,UACC-62,> 100 µM (inactive)
same,GI50,EKVX,44.2 µM (inactive)
same,GI50,SW-620,> 100 µM (inactive)
same,GI50,SF-268,85.3 µM (inactive)
same,GI50,XF498,> 100 µM (inactive)
same,GI50,LOX IMVI,> 100 µM (inactive)
same,GI50,DMS-114,> 100 µM (inactive)
same,GI50,HCC 2998,> 100 µM (inactive)
same,GI50,UACC-257,> 100 µM (inactive)
same,GI50,DLD-1,> 100 µM (inactive)
same,GI50,SNB-19,60.4 µM (inactive)
same,GI50,KM12,> 100 µM (inactive)
same,GI50,HOP-18,26.5 µM (inactive)
same,GI50,CCRF-CEM,> 100 µM (inactive)
same,GI50,RPMI-8226,54.2 µM (inactive)
same,GI50,CAKI-1,37.8 µM (inactive)
same,GI50,SNB-78,> 100 µM (inactive)
same,GI50,A549,> 100 µM (inactive)
same,GI50,HL-60,> 100 µM (inactive)
same,GI50,SN12C,> 100 µM (inactive)
same,GI50,786-0,> 100 µM (inactive)
same,GI50,LXFL 529,> 100 µM (inactive)
same,GI50,NCI-H226,28.4 µM (inactive)
same,GI50,OVCAR-5,> 100 µM (inactive)
same,GI50,SNB-75,19.4 µM (inactive)
same,GI50,ACHN,> 100 µM (inactive)
same,GI50,U-251,> 100 µM (inactive)
same,GI50,RXF 393,76.9 µM (inactive)
same,GI50,SK-MEL-5,> 100 µM (inactive)
same,GI50,HCT-15,> 100 µM
same,GI50,TK-10,> 100 µM (inactive)
same,GI50,COLO 205,> 100 µM (inactive)
same,GI50,NCI-H23,> 100 µM (inactive)
same,GI50,Malme-3M,> 100 µM (inactive)
same,GI50,DMS-273,> 100 µM (inactive)
same,GI50,NCI-H522,55.3 µM (inactive)
same,GI50,M14,> 100 µM (inactive)
same,GI50,HOP-62,> 100 µM (inactive)
same,GI50,KM-20L2,> 100 µM (inactive)
same,GI50,SK-MEL-28,> 100 µM (inactive)
same,GI50,SF-295,> 100 µM (inactive)
same,GI50,SK-OV-3,74.6 µM (inactive)
same,GI50,UO-31,23.6 µM (inactive)
same,GI50,OVCAR-4,> 100 µM (inactive)
same,GI50,IGROV-1,> 100 µM (inactive)
same,GI50,HT-29,> 100 µM (inactive)
same,GI50,MOLT-4,> 100 µM (inactive)
same,GI50,SK-MEL-2,> 100 µM (inactive)
